Experimental data published in publication PMC5787466, “Accelerated bottom-up drug design platform enables the discovery of novel stearoyl-CoA desaturase 1 inhibitors for cancer therapy” (Oncotarget, 2017).

Legend:
[1] = test system: 468 known kinases; assay: Kinome scan (binding)
Text: Induction of the unfolded protein response (UPR) is a known biological response to SCD1 inhibition in tumor cells. […] The addition of exogenous OA was sufficient to reverse the activation of ATF6 (Figure 4b). Moreover, exogenous OA inhibited SSI-(1-4) mediated upregulation of the UPR markers BiP (heat shock 70 kDa protein) and CHOP (damage inducible transcript 3) protein levels in both A498 and ACHN cells (Figure 4c). Collectively these findings confirm that SSI-(1-4) reliably recapitulates the biological responses observed in tumor cells treated with known SCD1 inhibitors. […] Thus, SSI-4 is not predicted to have any major off-target effects through kinase inhibition (Supplementary Figures 7 and 8). […]
of PLS factors. T-value filter (t-value < 2.0) was used to eliminate independent variables overly sensitive to incremental changes from the training set. For structural components, both atom-based and pharmacophore features based were examined.
The regression with m PLS factors, fitted to activities is given as: […]
i =1 , where m = number of PLS factors, b is regression coefficient, vector y represents activity values in the training set. […]
A final Z-filtering mechanism was applied to reduce the dataset to a few select compounds for synthesis and experimental screening by using combined normalized scoring. The final Z-score for each compound was determined as: […]

[2] = test system: ACHN ccRCC pulmonary metastasis; assay: ACHN pulmonary metastasis model; format: in vivo, athymic nude mice; conditions: 180 mg/kg in chow, 28 days
Experimental: SCD1 expression correlates with poor cancer patient outcomes as evidenced by decreased survival in multiple cancers including gastric, lung, ovarian and renal cell carcinoma (Figure 5a-5b, Supplementary Figure 9a-9b). […] Our findings in thyroid carcinoma similarly present discordancy between tumor response to SCD1 inhibitors and SCD1 expression. SSI-4 was tested in vivo for anti-tumorigenic activity.
Figure 5 SSI-4 attenuates tumor progression Kaplan Meier survival analysis of indicated subtypes of (a) gastric and (b) lung cancer patients sorted into high versus low SCD1 mRNA expression, for multiple disease subtypes. Patient risk assessment at indicated mean follow-up is shown. […] (h) Tumor burden of ACHN pulmonary metastasis in response to SSI-4 treatment (180mg/kg) measured by ex vivo bioluminescent flux, given in photons/second (n=5 per group). ([…]) Tumor burden of ACHN pulmonary metastasis as determined by H&E staining of lungs from (h).
ACHN cells were infected with pSIN Luc Ub Emerald GFP lentivirus construct, a kind gift from Dr. Yasuhiro Ikeda (Mayo Clinic). […] Lesion width was calculated as the mean of all nodules measured (7-12 per mouse), identified by H&E staining.
A498 cells were injected subcutaneously in the flank of athymic nude mice at 1x10^6/mouse. […] Tumor burden was measured using calipers. […]

[3] = Seven-day oral toxicology study (body weight, serum chemistry); format: in vivo, Sprague Dawley rats
Experimental: . […] Chronic treatment at the highest dose in tumor-bearing animals appeared to be well tolerated, with ‹10% reduction in body mass even at the highest dose of 600mg/kg after 4.5 weeks of daily treatment (Supplementary Figure S9d).
Figure 7 SSI-4 has a favorable toxicity profile (a-b) Weight changes in male or female Sprague Dawley rats treated daily with indicated doses of SSI-4 for seven days (n=3 per group). (c-d) Serum profile of indicated enzymes measured on day 8 in male or female Sprague Dawley rats treated daily with indicated doses of SSI-4 for seven days (n=3 per group). (BUN= blood urea nitrogen; AST= aspartate aminotransferase; ALT= alanine aminotransferase; ALK/Phos= alkaline phosphatase).
Sprague dawley rats (6-8 weeks old M/F) were orally gavaged with SS1-4 at the indicated dose daily, for a duration of seven days. For each dose levels 3 male and 3 females were placed on study. Rats were clinically observed and weighed daily. On day 8 rats were euthanatized and blood was collected by cardiac puncture. Blood chemistry was measured by STAT Veterinary laboratory (San Diego CA).

[4] = test system: A498; assay: Proliferation dose-response IC50, A498; format: cell-based; conditions: Homo sapiens, proliferative IC50, linear regression modeling of dose-response
Experimental: Error bars indicate standard deviation for n=2 replicates. […] To evaluate inhibition of SCD1 by these molecules, we used LC/MS to quantify changes in SCD1-catalyzed conversion of stearoyl-CoA to oleoyl-CoA in response to drug treatments in vitro using SCD1 protein extracted from murine liver (Figure 3c, Supplementary Figure 2g). […] Synthesis routes and spectral data including NMR and MS are also provided (Supplementary Figures 3-6).
Cells were seeded at 5,000 cells/well in clear-bottom 96-well plates in triplicate. Drug treatment was applied at 1:1000 in reduced serum conditions (3%). […] Alternatively, cells were plated 2x10^5/well in 12-well plates (Genesee Scientific) in triplicate prior to drug treatment. After 120-hour treatment, cell number was established using a Coulter Particle Counter (Beckman). Oleic acid-albumin (Sigma Aldrich) was added to media at 5µM, and was applied adjuvant to drug treatment. Drug stocks were prepared in DMSO (Sigma) at 1000x. IC50 dosing per cell line was calculated using CalcuSyn analytical software.

CNC(=O)c1ccnc(NC(=O)N2CCC(Oc3ccccc3Cl)CC2)c1 [SSI-4]
number of 403 non-mutant kinases bound ([1]; 10 nM): none
number of 403 non-mutant kinases bound ([1]; 100 nM, the kinase bound is CDKL2): 1
pulmonary metastasis formation of ACHN ccRCC [2]: reduced
liver enzymes ([3]; all doses tested, males and females, day 8): No abnormalities
changes in body weight ([3]; females, all doses tested, daily oral for one week): no significant changes
changes in body weight ([3]; males, daily oral dose of 300mg/kg for one week): < 10%
IC50 [4]: 0.009 µM
